Test system: MDA-MB-468 spheroids with HUVEC/MSC, viability
Assay: Anticancer human tumor MDA-MB-468 cell line growth inhibition [PI3K];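 note: spheroids exposed to agents for seven days before readout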;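 for viability, T/C: 100% = DMSO vehicle control viability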
Details: for IC50: curve of first compound; for viability, T/C: stronger effect = lower value; active = viability on the fitted dose curve at most 10% of control; inactive = the rest
In short: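 Spheroid viability read-out. Co-cultures contained the tumor line plus HUVEC and human MSCs. Each agent was paired with a PI3K inhibitor (inavolisib, alpelisib, duvelisib, copanlisib) across half-log dilutions starting at clinical Cmax, or at 10 microM when Cmax was unknown.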

[1] = second compound 0.00316 µM, first compound 0.0316 µM
[2] = second compound 0.00316 µM, first compound 0.1 µM
[3] = second compound 0.01 µM, first compound 0.0316 µM
[4] = second compound 0.01 µM, first compound 0.1 µM
[5] = second compound 0.0316 µM, first compound 0.000316 µM
[6] = second compound 0.0316 µM, first compound 0.001 µM
[7] = second compound 0.0316 µM, first compound 0.00316 µM
[8] = second compound 0.0316 µM, first compound 0.01 µM
[9] = second compound 0.0316 µM, first compound 0.0316 µM
[10] = second compound 0.0316 µM, first compound 0.1 µM
[11] = second compound 0.1 µM, first compound 0.000316 µM
[12] = second compound 0.1 µM, first compound 0.001 µM
[13] = second compound 0.1 µM, first compound 0.00316 µM
[14] = second compound 0.1 µM, first compound 0.01 µM
[15] = second compound 0.1 µM, first compound 0.0316 µM
[16] = second compound 0.1 µM, first compound 0.1 µM
[17] = second compound 0.316 µM, first compound 0.000316 µM
[18] = second compound 0.316 µM, first compound 0.001 µM
[19] = second compound 0.316 µM, first compound 0.00316 µM
[20] = second compound 0.316 µM, first compound 0.01 µM
[21] = second compound 0.316 µM, first compound 0.0316 µM
[22] = second compound 0.316 µM, first compound 0.1 µM
[23] = second compound 1 µM, first compound 0.000316 µM
[24] = second compound 1 µM, first compound 0.001 µM
[25] = second compound 1 µM, first compound 0.00316 µM
[26] = second compound 1 µM, first compound 0.01 µM
[27] = second compound 1 µM, first compound 0.0316 µM
[28] = second compound 1 µM, first compound 0.1 µM

CC(=O)c1c(C)c2cnc(Nc3ccc(N4CCNCC4)cn3)nc2n(C2CCCC2)c1=O + CC(Nc1ccc2c(c1)OCCn1cc(N3C(=O)OCC3C(F)F)nc1-2)C(N)=O
inactive: viability, T/C (second compound 0.00316 µM, first compound 0.000316 µM) 96.1% | viability, T/C (second compound 0.00316 µM, first compound 0.001 µM) 95.3% | viability, T/C (second compound 0.00316 µM, first compound 0.00316 µM) 96.8% | viability, T/C (second compound 0.00316 µM, first compound 0.01 µM) 102% | viability, T/C [1] 97.4% | viability, T/C [2] 89.9% | viability, T/C (second compound 0.01 µM, first compound 0.000316 µM) 105% | viability, T/C (second compound 0.01 µM, first compound 0.001 µM) 91% | viability, T/C (second compound 0.01 µM, first compound 0.00316 µM) 93.6% | viability, T/C (second compound 0.01 µM, first compound 0.01 µM) 110% | viability, T/C [3] 105% | viability, T/C [4] 97.1% | viability, T/C [5] 103% | viability, T/C [6] 92.7% | viability, T/C [7] 89% | viability, T/C [8] 89% | viability, T/C [9] 97% | viability, T/C [10] 79.3% | viability, T/C [11] 86.5% | viability, T/C [12] 84.8% | viability, T/C [13] 101% | viability, T/C [14] 88.4% | viability, T/C [15] 96% | viability, T/C [16] 89.2% | viability, T/C [17] 89.5% | viability, T/C [18] 72.1% | viability, T/C [19] 79.1% | viability, T/C [20] 87.5% | viability, T/C [21] 83.8% | viability, T/C [22] 84.1% | viability, T/C [23] 84.1% | viability, T/C [24] 81.6% | viability, T/C [25] 73% | viability, T/C [26] 90.6% | viability, T/C [27] 66.7% | viability, T/C [28] 82%
> 100 nM: IC50 (second compound 0.00316 µM) | IC50 (second compound 0.01 µM) | IC50 (second compound 0.0316 µM) | IC50 (second compound 0.1 µM) | IC50 (second compound 0.316 µM) | IC50 (second compound 1 µM)

CC(Cn1ccc(-c2ccc(C#N)c(Cl)c2)n1)NC(=O)c1cc(C(C)O)[nH]n1 (stereo unspecified) + COc1c(OCCCN2CCOCC2)ccc2c3n(c(=NC(=O)c4cnc(N)nc4)nc12)CCN3
active: viability, T/C [27] 2.86% | viability, T/C [28] 2.48% | viability, T/C (second compound 1 µM, first compound 0.316 µM) 2.64% | viability, T/C (second compound 1 µM, first compound 1 µM) 3.21% | viability, T/C (second compound 1 µM, first compound 3.16 µM) 3.72% | viability, T/C (second compound 1 µM, first compound 10 µM) 2.3%
inactive: viability, T/C [1] 88.8% | viability, T/C [2] 90.3% | viability, T/C (second compound 0.00316 µM, first compound 0.316 µM) 94.3% | viability, T/C (second compound 0.00316 µM, first compound 1 µM) 92.3% | viability, T/C (second compound 0.00316 µM, first compound 3.16 µM) 90.5% | viability, T/C (second compound 0.00316 µM, first compound 10 µM) 75.3% | viability, T/C [3] 92.2% | viability, T/C [4] 91.3% | viability, T/C (second compound 0.01 µM, first compound 0.316 µM) 83.4% | viability, T/C (second compound 0.01 µM, first compound 1 µM) 95.3% | viability, T/C (second compound 0.01 µM, first compound 3.16 µM) 85.3% | viability, T/C (second compound 0.01 µM, first compound 10 µM) 63.7% | viability, T/C [9] 83.6% | viability, T/C [10] 75.7% | viability, T/C (second compound 0.0316 µM, first compound 0.316 µM) 87.1% | viability, T/C (second compound 0.0316 µM, first compound 1 µM) 80.5% | viability, T/C (second compound 0.0316 µM, first compound 3.16 µM) 80.9% | viability, T/C (second compound 0.0316 µM, first compound 10 µM) 62.8% | viability, T/C [15] 55.8% | viability, T/C [16] 57% | viability, T/C (second compound 0.1 µM, first compound 0.316 µM) 60.9% | viability, T/C (second compound 0.1 µM, first compound 1 µM) 59.3% | viability, T/C (second compound 0.1 µM, first compound 3.16 µM) 56% | viability, T/C (second compound 0.1 µM, first compound 10 µM) 62.3% | viability, T/C [21] 26.9% | viability, T/C [22] 24.4% | viability, T/C (second compound 0.316 µM, first compound 0.316 µM) 27.3% | viability, T/C (second compound 0.316 µM, first compound 1 µM) 26.1% | viability, T/C (second compound 0.316 µM, first compound 3.16 µM) 26.7% | viability, T/C (second compound 0.316 µM, first compound 10 µM) 27.2%
< 31.6 nM: IC50 (second compound 0.316 µM) | IC50 (second compound 1 µM)
> 10000 nM: IC50 (second compound 0.00316 µM) | IC50 (second compound 0.01 µM) | IC50 (second compound 0.0316 µM) | IC50 (second compound 0.1 µM)

Cn1ncnc1[C@H]1c2n[nH]c(=O)c3cc(F)cc(c23)N[C@@H]1c1ccc(F)cc1 + CC(Nc1ncnc2nc[nH]c12)c1cc2cccc(Cl)c2c(=O)n1-c1ccccc1
96.2 nM: IC50 (second compound 0.316 µM)
72.5 nM: IC50 (second compound 1 µM)
< 0.316 nM: IC50 (second compound 10 µM)
inactive: viability, T/C [5] 84.5% | viability, T/C [6] 90.7% | viability, T/C [7] 86.9% | viability, T/C [8] 78.1% | viability, T/C [9] 68.1% | viability, T/C [10] 51.2% | viability, T/C [11] 78.3% | viability, T/C [12] 95.1% | viability, T/C [13] 85% | viability, T/C [14] 66% | viability, T/C [15] 65.3% | viability, T/C [16] 51.7% | viability, T/C [17] 73.2% | viability, T/C [18] 74.5% | viability, T/C [19] 73% | viability, T/C [20] 69.9% | viability, T/C [21] 64% | viability, T/C [22] 49.5% | viability, T/C [23] 59.3% | viability, T/C [24] 74% | viability, T/C [25] 60.1% | viability, T/C [26] 64.5% | viability, T/C [27] 57.8% | viability, T/C [28] 46.8% | viability, T/C (second compound 3.16 µM, first compound 0.000316 µM) 55.5% | viability, T/C (second compound 3.16 µM, first compound 0.001 µM) 52.1% | viability, T/C (second compound 3.16 µM, first compound 0.00316 µM) 53.4% | viability, T/C (second compound 3.16 µM, first compound 0.01 µM) 52.8% | viability, T/C (second compound 3.16 µM, first compound 0.0316 µM) 51.9% | viability, T/C (second compound 3.16 µM, first compound 0.1 µM) 38.7% | viability, T/C (second compound 10 µM, first compound 0.000316 µM) 39.4% | viability, T/C (second compound 10 µM, first compound 0.001 µM) 37.8% | viability, T/C (second compound 10 µM, first compound 0.00316 µM) 40.6% | viability, T/C (second compound 10 µM, first compound 0.01 µM) 36.9% | viability, T/C (second compound 10 µM, first compound 0.0316 µM) 35.2% | viability, T/C (second compound 10 µM, first compound 0.1 µM) 26.9%
37 nM: IC50 (second compound 3.16 µM)
> 100 nM: IC50 (second compound 0.0316 µM) | IC50 (second compound 0.1 µM)

— PubChem BioAssay AID1963960 (Molecular Pharmacology Branch, DTP, NCI, 2024)
